system: Human RSV-A (“Long” strain); assay: RSV in vitro cytoprotection assay in HEp-2 cells (ATPlite readout); format: cell-based; settings: human respiratory syncytial virus, 96 h; HEp-2 cells, 4-day incubation, ATPlite; read-out: Human RSV-A (“Long” strain) EC50
From the text: RSV is a single stranded negative sense RNA virus that causes respiratory tract infections which can be dangerous to infants, the elderly, and immunosuppressed individuals. Currently there is no vaccine, and therapeutic options are both costly and of limited effectiveness. These approved treatments are Ribavirin, and Palivizumab/Synagis (a monoclonal antibody). RSV has two genotypes, A and B, which differ primarily in the structure of the virus' surface “G” attachment protein. Our current primary screen focusses on RSV-A and uses an in vitro cytoprotection assay where compounds are added in 2-fold dilutions to cells which are then subjected to fully replicative viral particles. Cell viability is measured several days later along with separate measurements of compound cytotoxicity. This report focuses on the results of our most recent screening of compounds.
HEp-2 cells, (originally derived from tumors grown in irradiated-cortisonised weanling rats that had been injected with epidermoid carcinoma tissue from a person's larynx, but later found to be indistinguishable from HeLa cells by PCR DNA analysis), were used for the culturing of genotype A, “Long” strain RSV. Flasks were inoculated with RSV and viral stocks were collected once cytopathic effect (CPE) was greater than 90%. Viral stocks in 25% sucrose media were snap frozen using liquid nitrogen to increase viral stability. Viral stock titers were quantified by tissue culture infectious dose 50% (TCID50) using 8,000 cells per well and 3-fold viral dilutions across a 96-well plate, cultured for 4 days.
Following extensive parameter testing, the final assay is run as follows: HEp-2 cells are seeded into the inner 60 wells of a 96-well plate at 8,000 cells per well in a volume of 50 μL using Growth Media (DMEM without phenol red, 1% L-Glut, 1% Penn/Strep, 1% nonessential amino acids, 10% FBS). 2-Fold serial dilutions of control and test compounds are added to the wells in duplicate in a total volume of 25 μL. Viral stock is then added to the wells in a volume of 25 μL, bringing the total volume of each well to 100 μL. Each 96-well plate has a control column of 6 wells with cells and virus but no compound (negative control, max CPE), a column with cells but no compound or virus (positive control, minimum CPE), and a column with no cells or virus or compound (background plate/reagent control). The control wells with cells but no virus are given an additional 25 uL of growth media containing an equal quantity of sucrose as those wells receiving the viral stock in order to keep consistent in media and volume conditions. The outer wells of the plate are filled with 125 μL of growth media to act as a thermal and evaporative moat around the test wells. Following a 4-day incubation period, the plates are read using ATPlite (50 uL added per well), which quantifies the amount of ATP (a measure of cell health) present in each well. Assay plates are read using the Envision luminometer. In parallel, cytotoxicity is examined on an additional 96-well plate treated in an identical manner, but substituting the 25 μL of viral stock for 25 μL of growth media. […] EC50 ranges are as follows: A<0.01 μM; B 0.01-0.05 μM; C>0.05 μM.

Row | EC50 [µM] | SMILES
1 | 0.01 to 0.05 | Cc1cnc(N2CCC3(CC2)COC3)c(C(=O)Nc2ccc(C(=O)N3CCc4cc(C(=O)Nc5ccccc5)sc4-c4ncccc43)cc2)c1 [Example 90]
2 | < 0.01 | Cc1cnc(N2CCC3(CC2)COC3)c(C(=O)Nc2ccc(C(=O)N3CCc4cc(C(=O)Nc5c(Cl)cccc5Cl)sc4-c4ncccc43)cc2)c1 [Example 91]
3 | 0.01 to 0.05 | Cc1cnc(N2CCC3(CC2)COC3)c(C(=O)Nc2ccc(C(=O)N3CCc4cc(C(=O)Nc5c(C)cccc5C#N)sc4-c4ncccc43)cc2)c1 [Example 92]
4 | < 0.01 | Cc1cnc(N2CCC3(CC2)COC3)c(C(=O)Nc2ccc(C(=O)N3CCc4cc(C(=O)Nc5c(F)cccc5Cl)sc4-c4ncccc43)cc2)c1 [Example 93]
5 | 0.01 to 0.05 | Cc1cnc(N2CCC3(CC2)COC3)c(C(=O)Nc2ccc(C(=O)N3CCc4cc(C(=O)Nc5c(F)cccc5C(F)(F)F)sc4-c4ncccc43)cc2)c1 [Example 94]
6 | 0.01 to 0.05 | Cc1cnc(N2CCC3(CC2)COC3)c(C(=O)Nc2ccc(C(=O)N3CCc4cc(C(=O)Nc5ncccc5F)sc4-c4ncccc43)cc2)c1 [Example 95]
7 | 0.01 to 0.05 | Cc1cnc(N2CCC3(CC2)COC3)c(C(=O)Nc2ccc(C(=O)N3CCc4cc(-c5nc6cccc(F)c6[nH]5)sc4-c4ncccc43)cc2)c1 [Example 97]
8 | < 0.01 | Cc1cnc(N2CCC3(CC2)COC3)c(C(=O)Nc2ccc(C(=O)N3CCc4cc(C(=O)Nc5c(C)cccc5F)sc4-c4ncccc43)cc2)c1 [Example 98]
9 | < 0.01 | Cc1cnc(N2CC3(CCOCC3)C2)c(C(=O)Nc2ccc(C(=O)N3CCc4cc(C(=O)Nc5c(F)cccc5F)oc4-c4ncc(F)cc43)cc2)c1 [Example 99]
10 | 0.01 to 0.05 | Cc1cnc(N2CC3(CCOCC3)C2)c(C(=O)Nc2ccc(C(=O)N3CCc4cc(C(=O)Nc5c(Cl)cccc5Cl)oc4-c4ncc(F)cc43)cc2)c1 [Example 100]
11 | < 0.01 | Cc1cnc(N2CC3(CCOCC3)C2)c(C(=O)Nc2ccc(C(=O)N3CCc4cc(C(=O)Nc5c(F)cccc5Cl)oc4-c4ncc(F)cc43)cc2)c1 [Example 101]
12 | 0.01 to 0.05 | Cc1cnc(N2CC3(CCOCC3)C2)c(C(=O)Nc2ccc(C(=O)N3CCc4cc(C(=O)Nc5c(F)cccc5C(F)(F)F)oc4-c4ncc(F)cc43)cc2)c1 [Example 102]
13 | 0.01 to 0.05 | Cc1cnc(N2CC3(CCOCC3)C2)c(C(=O)Nc2ccc(C(=O)N3CCc4cc(-c5nc6ccccc6[nH]5)oc4-c4ncc(F)cc43)cc2)c1 [Example 103]
14 | < 0.01 | O=C(Nc1c(F)cccc1F)c1cc2c(o1)-c1ncc(F)cc1N(C(=O)c1ccc(NC(=O)c3cc4c(nc3N3CC5(CCOCC5)C3)CCC4)cc1)CC2 [Example 104]
15 | < 0.01 | O=C(Nc1c(Cl)cccc1Cl)c1cc2c(o1)-c1ncc(F)cc1N(C(=O)c1ccc(NC(=O)c3cc4c(nc3N3CC5(CCOCC5)C3)CCC4)cc1)CC2 [Example 105]
16 | < 0.01 | O=C(Nc1c(F)cccc1Cl)c1cc2c(o1)-c1ncc(F)cc1N(C(=O)c1ccc(NC(=O)c3cc4c(nc3N3CC5(CCOCC5)C3)CCC4)cc1)CC2 [Example 106]
17 | < 0.01 | O=C(Nc1c(F)cccc1C(F)(F)F)c1cc2c(o1)-c1ncc(F)cc1N(C(=O)c1ccc(NC(=O)c3cc4c(nc3N3CC5(CCOCC5)C3)CCC4)cc1)CC2 [Example 107]
18 | 0.01 to 0.05 | O=C(Nc1ccc(C(=O)N2CCc3cc(-c4nc5ccccc5[nH]4)oc3-c3ncc(F)cc32)cc1)c1cc2c(nc1N1CC3(CCOCC3)C1)CCC2 [Example 108]
19 | 0.01 to 0.05 | Cc1cnc(N2CC3(CCOCC3)C2)c(C(=O)Nc2ccc(C(=O)N3CCc4cc(-c5ccc[nH]c5=O)oc4-c4ncc(F)cc43)cc2)c1 [Example 109]
20 | 0.01 to 0.05 | Cc1cnc(N2CC3(CCOCC3)C2)c(C(=O)Nc2ccc(C(=O)N3CCc4cc(-c5ccc[nH]c5=O)sc4-c4ncc(F)cc43)cc2)c1 [Example 110]
21 | 0.01 to 0.05 | Cc1cnc(N2CC3(CCOCC3)C2)c(C(=O)Nc2ccc(C(=O)N3CCc4cc(C(=O)Nc5c(F)cccc5F)oc4-c4cccnc43)cc2)c1 [Example 111]
22 | > 0.05 | Cc1cnc(N2CC3(CCOCC3)C2)c(C(=O)Nc2ccc(C(=O)N3CCc4cc(C(=O)Nc5c(C)cccc5F)oc4-c4cccnc43)cc2)c1 [Example 112]
23 | > 0.05 | Cc1cnc(N2CC3(CCOCC3)C2)c(C(=O)Nc2ccc(C(=O)N3CCc4cc(C(=O)Nc5c(F)cccc5Cl)oc4-c4cccnc43)cc2)c1 [Example 113]

Row | EC50 [µM] | SMILES
24 | > 0.05 | Cc1cnc(N2CC3(CCOCC3)C2)c(C(=O)Nc2ccc(C(=O)N3CCc4cc(-c5nc6ccccc6[nH]5)oc4-c4cccnc43)cc2)c1 [Example 114]
25 | 0.01 to 0.05 | Cc1cnc(N2CC3(CCOCC3)C2)c(C(=O)Nc2ccc(C(=O)N3CCc4cc(C(=O)Nc5c(F)cccc5F)oc4-c4ncccc43)cc2)c1 [Example 115]
26 | 0.01 to 0.05 | Cc1cnc(N2CC3(CCOCC3)C2)c(C(=O)Nc2ccc(C(=O)N3CCc4cc(C(=O)Nc5c(F)cccc5Cl)oc4-c4ncccc43)cc2)c1 [Example 117]
27 | 0.01 to 0.05 | Cc1cnc(N2CC3(CCOCC3)C2)c(C(=O)Nc2ccc(C(=O)N3CCc4cc(-c5nc6ccccc6[nH]5)oc4-c4ncccc43)cc2)c1 [Example 118]
28 | < 0.01 | O=C(Nc1c(F)cccc1F)c1cc2c(o1)-c1ncccc1N(C(=O)c1ccc(NC(=O)c3cc4c(nc3N3CC5(CCOCC5)C3)CCC4)cc1)CC2 [Example 119]
29 | 0.01 to 0.05 | O=C(Nc1ccc(C(=O)N2CCc3cc(-c4nc5ccccc5[nH]4)oc3-c3ncccc32)cc1)c1cc2c(nc1N1CC3(CCOCC3)C1)CCC2 [Example 120]
30 | 0.01 to 0.05 | Cc1cnc(N2CC3(CCOCC3)C2)c(C(=O)Nc2ccc(C(=O)N3CCc4cc(C(=O)Nc5c(F)cccc5F)oc4-c4ccncc43)cc2)c1 [Example 121]
31 | > 0.05 | Cc1cnc(N2CC3(CCOCC3)C2)c(C(=O)Nc2ccc(C(=O)N3CCc4cc(C(=O)Nc5c(F)cc(F)cc5F)oc4-c4ccncc43)cc2)c1 [Example 122]
32 | > 0.05 | Cc1cnc(N2CC3(CCOCC3)C2)c(C(=O)Nc2ccc(C(=O)N3CCc4cc(C(=O)Nc5c(C)cccc5F)oc4-c4ccncc43)cc2)c1 [Example 123]
33 | > 0.05 | Cc1cnc(N2CC3(CCOCC3)C2)c(C(=O)Nc2ccc(C(=O)N3CCc4cc(-c5nc6ccccc6[nH]5)oc4-c4ccncc43)cc2)c1 [Example 124]
34 | 0.01 to 0.05 | Cc1cnc(N2CC3(CCOCC3)C2)c(C(=O)Nc2ccc(C(=O)N3CCc4cc(C(=O)Nc5c(F)cccc5Cl)oc4-c4ccncc43)cc2)c1 [Example 125]
35 | > 0.05 | Cc1cnc(N2CC3(CCOCC3)C2)c(C(=O)Nc2ccc(C(=O)N3CCc4cc(C(=O)Nc5c(F)cccc5C(F)(F)F)oc4-c4ccncc43)cc2)c1 [Example 126]
36 | > 0.05 | Cc1cnc(N2CC3(CCOCC3)C2)c(C(=O)Nc2ccc(C(=O)N3CCc4cc(-c5nc6cccc(F)c6[nH]5)oc4-c4ccncc43)cc2)c1 [Example 127]
37 | 0.01 to 0.05 | Cc1cnc(N2CC3(CCOCC3)C2)c(C(=O)Nc2ccc(C(=O)N3CCc4cc(C(=O)Nc5c(F)cccc5F)sc4-c4cc(C)sc43)cc2)c1 [Example 128]
38 | > 0.05 | Cc1cnc(N2CC3(CCOCC3)C2)c(C(=O)Nc2ccc(C(=O)N3CCc4cc(C(=O)Nc5c(F)cc(F)cc5F)sc4-c4cc(C)sc43)cc2)c1 [Example 129]
39 | > 0.05 | Cc1cnc(N2CC3(CCOCC3)C2)c(C(=O)Nc2ccc(C(=O)N3CCc4cc(C(=O)Nc5c(Cl)cccc5Cl)sc4-c4cc(C)sc43)cc2)c1 [Example 130]
40 | 0.01 to 0.05 | Cc1cnc(N2CC3(CCOCC3)C2)c(C(=O)Nc2ccc(C(=O)N3CCc4cc(-c5nc6cccc(F)c6[nH]5)sc4-c4cc(C)sc43)cc2)c1 [Example 131]
41 | 0.01 to 0.05 | Cc1cnc(N2CC3(CCOCC3)C2)c(C(=O)Nc2ccc(C(=O)N3CCc4cc(-c5nc6ccccc6[nH]5)sc4-c4cc(C)sc43)cc2)c1 [Example 132]
42 | < 0.01 | Cc1cnc(N2CC3(CCOCC3)C2)c(C(=O)Nc2ccc(C(=O)N3CCc4cc(C(=O)Nc5c(F)cccc5F)sc4-c4ncc(C)cc43)cc2)c1 [Example 133]
43 | < 0.01 | Cc1cnc(N2CC3(CCOCC3)C2)c(C(=O)Nc2ccc(C(=O)N3CCc4cc(C(=O)Nc5c(C)cccc5F)sc4-c4ncc(C)cc43)cc2)c1 [Example 134]
44 | < 0.01 | Cc1cnc(N2CC3(CCOCC3)C2)c(C(=O)Nc2ccc(C(=O)N3CCc4cc(C(=O)Nc5c(F)cccc5Cl)sc4-c4ncc(C)cc43)cc2)c1 [Example 136]
45 | < 0.01 | Cc1cnc(N2CC3(CCOCC3)C2)c(C(=O)Nc2ccc(C(=O)N3CCc4cc(-c5nc6ccccc6[nH]5)sc4-c4ncc(C)cc43)cc2)c1 [Example 137]
